Test [1] relates to HBV DNA replication. Kind of test: Inhibition of HBV virus replication (HBV DNA in supernatant, qPCR). To be noted: Hepatitis B virus, 240 h; HepG2.2.15 cells, 10 days treatment, supernatant HBV DNA by qPCR. The test is classed as cell-based. As for the experimental part: (§1) The chromosomes of HepG2.2.15 cells (SELLS, PNAS, 1987 and SELLS, JV, 1988) integrate the complete HBV genome and stably express viral RNA and viral proteins. HepG2.2.15 cells are able to secrete mature HBV particles and HBsAg into the culture medium. Viral particle DNA and HBsAg secreted by HepG 2.2.15 cells can be quantified by qPCR and ELISA methods, and the effects of the compound on virus replication and HBsAg secretion are thus examined.
HepG 2.2.15 Cells (8,000 per well) were seeded into 96-well cell culture plates in duplicate and cultured for 3 days until the cells grew to fill in pores. Cells were treated with 4-fold serial diluted compound solution for 10 days, and the compound solution was exchanged once every other day, the final concentration of DMSO in all wells was 0.5% and DMSO was used as a drug-free control. On the eleventh day, the supernatant was collected for quantitative detection of HBV DNA.
qPCR method was used for detection of viral genomic DNA, HBV primers were as follows: HBV-For-202, […]; HBV-Rev-315, […].
Using the SY BR Premix Ex Taq II—Takara DRR081S kit, 1 ≈L of the cell culture supernatant was used as a template, a plasmid containing the HBV genome was used for plotting a standard curve, and virus copy number was calculated using the standard curve. Concentration-virus copy number was treated with Graphpad Prism 5 software and the IC50 of inhibition of virus replication by compounds was calculated by a four-parameter nonlinear regression model.

Test [2] deals with HBsAg secretion. Kind of test: Inhibition of HBsAg secretion (ELISA). The test is classed as cell-based, HBV. To be noted: Hepatitis B virus, HepG2.2.15, 240 h, read-out: HbsAg IC50 (nM). As for the experimental part: as §1
HepG 2.2.15 Cells (8,000 per well) were seeded into 96-well cell culture plates in duplicate and cultured for 3 days until the cells grew to fill in pores. Cells were treated with 4-fold serial diluted compound solution for 10 days, and the compound solution was exchanged once every other day, the final concentration of DMSO in all wells was 0.5% and DMSO was used as a drug-free control. On the eleventh day, the supernatant was collected for quantitative detection of HBsAg.
The level of HBsAg secreted by the cells after treatment with the compound was detected by ELISA. The method used a hepatitis B surface antigen diagnostic kit (Shanghai K ehua Biotechnology Co., Ltd. 510910113). 25 ≈L of the supernatant to be examined (diluted to 75 ≈L in PBS) was added to each well of the ELISA plate, and a kit-positive control and a negative control were set. The ELISA plates were blocked with mounting paper and incubated at 37 eC for 60 minutes. The ELISA plate was took out, and the mounting paper was removed, then 50 ≈L of enzyme conjugate was added into each well. After shaking for 10 seconds, the ELISA plates were blocked with mounting paper and incubated at 37 eC for 30 minutes. The ELISA plate was took out, and the mounting paper was removed, and the ELISA plate was repeated washing five times: liquid in the wells was discard each time; the wells was filled with washing solution, then stood for 60 seconds and spined dry; and liquid residue on blotting paper was patted dry. After the washing was completed, to all wells was immediately added a mixture of freshly prepared developer A and developer B: 100 ≈L per well. After shaking for 10 seconds on oscillator, the ELISA plates were blocked with mounting paper and incubated at 37 eC for 30 minutes. To all wells were added 50 ≈L of stop solution. Data were read at a wavelength of 450 nm on an Envision plate reader. Concentration-HBsAg OD450 value was treated with Graphpad Prism 5 software and the IC50 of inhibition of HBsAg secretion by compounds was calculated by a four-parameter nonlinear regression model.

pIC50: −log10 of the molar value.

Regarding `COCCCOc1cc2c(cc1-c1ncc(Br)s1)-c1cc(=O)c(C(=O)O)cn1C(C(C)C)C2` (stereo not drawn) [Example 24, 10-(5-bromothiazol-2-yl)-6-isopropyl-9-(3-methoxypropoxy)-2-oxo-6,7-dihydro-2H-pyrido[2,1-a]isoquinoline-3-carboxylic Acid], the pIC50 in test [1] is 8.06. For the same compound, the 50% inhibitory concentration (IC50) in test [2] is 9.99 nM.
In test [1], `CC(=O)c1cc2c(cc1-c1ccco1)CC(C(C)C)n1cc(C(=O)O)c(=O)cc1-2` (stereo not drawn) [Example 31, 10-acetyl-9-(furan-2-yl)-6-isopropyl-2-oxo-6,7-dihydro-2H-pyrido[2,1-a]isoquinoline-3-carboxylic Acid] had a negative logarithm of the IC50 (pIC50) of 8.20. In test [2], the IC50 amounted to 8.2 nM.
In test [1], `COc1cc2c(cc1-c1ncc(C(C)C)s1)CC(C(C)C)n1cc(C(=O)O)c(=O)cc1-2` (stereo not drawn) [Example 77, 6-isopropyl-9-(5-isopropylthiazol-2-yl)-10-methoxy-2-oxo-6,7-dihydro-2H-pyrido[2,1-a]isoquinoline-3-carboxylic Acid] showed a pIC50 of 8.55. In test [2], the half-maximal inhibitory concentration (IC50) amounted to 2.87 nM.
Compound `COc1cc2c(cc1-c1ncc(Br)s1)CC(C(C)C)n1cc(C(=O)O)c(=O)cc1-2` (stereo not drawn) [Example 80, 9-(5-bromothiazol-2-yl)-6-isopropyl-10-methoxy-2-oxo-6,7-dihydro-2H-pyrido[2,1-a]isoquioline-3-carboxlic Acid] showed a pIC50 in test [1] of 8.59. Besides, in test [2], the 50% inhibitory concentration (IC50) was 2.16 nM.
Compound `CCCCCOc1cc2c(cc1-c1nccs1)-c1cc(=O)c(C(=O)O)cn1C(C(C)C)C2` (stereo not drawn) [Example 20, 6-isopropyl-2-oxo-9-(pentyloxy)-10-(thiazol-2-yl)-6,7-dihydro-2H-pyrido[2,1-a]isoquinoline-3-carboxylic Acid] gave a negative logarithm of the IC50 (pIC50) in test [1] of 8.06. Besides, in test [2], the half-maximal inhibitory concentration (IC50) was found to be 8.12 nM.
The corresponding values for `COc1cc2c(cc1-c1ccco1)CC(C(C)C)n1cc(C(=O)O)c(=O)cc1-2` (stereo not drawn) [Example 16, 9-(furan-2-yl)-6-isopropyl-10-methoxy-2-oxo-6,7-dihydro-2H-pyrido[2,1-a]isoquinoline-3-carboxylic Acid] are 8.70 and 3.2 nM.
The corresponding values for `COCCCOc1cc2c(cc1-c1cscn1)-c1cc(=O)c(C(=O)O)cn1C(C(C)C)C2` (stereo not drawn) [Example 13, 6-isopropyl-9-(3-methoxypropoxy)-2-oxo-10-(thiazol-4-yl)-6,7-dihydro-2H-pyrido[2,1-a]isoquinoline-3-carboxylic Acid] are 9.19 and 1.48 nM.
In the case of `CC(=O)c1cc2c(cc1N1CCCC1)CC(C(C)C)n1cc(C(=O)O)c(=O)cc1-2` (stereo not drawn) [Example 30, 10-acetyl-6-isopropyl-2-oxo-9-(pyrrolidin-1-yl)-6,7-dihydro-2H-pyrido[2,1-a]isoquinoline-3-carboxylic Acid], the pIC50 in test [1] was 8.11. For the same compound, the IC50 in test [2] was 7.83 nM.
In turn, `COCCCOc1cc2c(cc1-c1cccs1)-c1cc(=O)c(C(=O)O)cn1C(C(C)C)C2` (stereo not drawn) [Example 15, 6-isopropyl-9-(3-methoxypropoxy)-2-oxo-10-(thiophen-2-yl)-6,7-dihydro-2H-pyrido[2,1-a]isoquinoline-3-carboxylic Acid] had a pIC50 in test [1] of 9.41. In addition, the 50% inhibitory concentration (IC50) in test [2] was 0.77 nM.
Taken in the same sequence, the figures for `COCCCOc1cc2c(cc1C(=O)OCC(F)F)-c1cc(=O)c(C(=O)O)cn1C(C(C)C)C2` (stereo not drawn) [Example 35, 10-((2,2-difluoroethoxy)carbonyl)-6-isopropyl-9-(3-methoxypropoxy)-2-oxo-6,7-dihydro-2H-pyrido[2,1-a]isoquinoline-3-carboxylic Acid] were 8.12 and 9.25 nM.
Taken in the same sequence, the figures for `COc1cc2c(cc1-c1cccs1)CC(C(C)C)n1cc(C(=O)O)c(=O)cc1-2` (stereo not drawn) [Example 17, 6-isopropyl-10-methoxy-2-oxo-9-(thiophen-2-yl)-6,7-dihydro-2H-pyrido[2,1-a]isoquinoline-3-carboxylic Acid] were 8.44 and 2.14 nM.
In turn, `COCc1csc(-c2cc3c(cc2OC)-c2cc(=O)c(C(=O)O)cn2C(C(C)C)C3)n1` (stereo not drawn) [Example 78, 6-isopropyl-10-methoxy-9-(4-(methoxymethyl)thiazol-2-yl)-2-oxo-6,7-dihydro-2H-pyrido[2,1-a]isoquinoline-3-carboxylic Acid] gave a negative-log IC50 (pIC50) in test [1] of 8.55. The IC50 in test [2] was 3.26 nM.
Compound `C#CCOC(=O)c1cc2c(cc1OCCCOC)CC(C(C)C)n1cc(C(=O)O)c(=O)cc1-2` (stereo not drawn) [Example 36, 6-isopropyl-9-(3-methoxypropoxy)-2-oxo-10-((prop-2-yn-1-yloxy)carbonyl)-6,7-dihydro-2H-pyrido[2,1-a]isoquinoline-3-carboxylic Acid] gave a pIC50 in test [1] of 8.59. Further, the IC50 in test [2] came out at 4.22 nM.
Compound `COCCCOc1cc2c(cc1-c1ncco1)-c1cc(=O)c(C(=O)O)cn1C(C(C)C)C2` (stereo not drawn) [Example 10, 6-isopropyl-9-(3-methoxypropoxy)-10-(oxazol-2-yl)-2-oxo-6,7-dihydro-2H-pyrido[2,1-a]isoquinoline-3-carboxylic Acid] gave a negative logarithm of the IC50 (pIC50) in test [1] of 8.14. The IC50 in test [2] was 10.5 nM.
Taken in the same sequence, the figures for `COC(=O)c1cc2c(cc1-c1ccco1)CC(C(C)C)n1cc(C(=O)O)c(=O)cc1-2` (stereo not drawn) [Example 32, 9-(furan-2-yl)-6-isopropyl-10-(methoxycarbonyl)-2-oxo-6,7-dihydro-2H-pyrido[2,1-a]isoquinoline-3-carboxylic Acid] were 8.12 and 9.62 nM.

(Values after patent US10966970B2, “Fused tricyclic compounds and uses thereof in medicine” (SUNSHINE LAKE PHARMA CO., LTD., priority 2017, dated 2021).)
